Results from patent US20190069553A1, “METHOD FOR CONTROLLING PPO RESISTANT WEEDS” (BASF SE, priority 2016, published 2019).
Where two headings read alike, the source gives them in different places.

How the values were obtained:
Assay type in all cases: in vivo
[1] = test system: Ambrosia elatior (common ragweed, AMBEL), sensitive biotype (w.4); details: scale 0 to 100
[2] = test system: Amaranthus tamariscinus (common waterhemp, AMATA), sensitive biotype (w.1); details: scale 0 to 100
[3] = test system: Amaranthus tuberculatus (tall waterhemp, AMATU), sensitive biotype (w.7); experiment: Greenhouse herbicidal activity test, another (second) experiment, weed w.7; details: scale 0 to 100
[4] = test system: Amaranthus tamariscinus (common waterhemp, AMATA), PPO resistant biotype 8 (w.12); experiment: Greenhouse herbicidal activity test, third experiment, weed w.12; details: use rate 4 g/ha; PPO resistant biotype 8 common waterhemp; scale 0 to 100
[5] = test system: Amaranthus tamariscinus (common waterhemp, AMATA), sensitive biotype (w.10); experiment: Greenhouse herbicidal activity test, third experiment, weed w.10; details: scale 0 to 100
[6] = test system: Amaranthus tamariscinus (common waterhemp, AMATA), PPO resistant biotype 7 (w.11); experiment: Greenhouse herbicidal activity test, third experiment, weed w.11; details: use rate 4 g/ha; PPO resistant biotype 7 common waterhemp; scale 0 to 100

SMILES	Weed control (%) w.4 ([1]; use rate 1 g/ha)	Weed control (%) w.4 ([1]; use rate 2 g/ha)	Weed control (%) w.1 ([2]; use rate 1 g/ha)	Weed control (%) w.1 ([2]; use rate 2 g/ha)	Weed control (%) 7 ([3]; use rate 1 g/ha)	Weed control (%) 7 ([3]; use rate 2 g/ha)	Weed control (%) w.12 [4]	Weed control (%) w.10 ([5]; use rate 2 g/ha)	Weed control (%) w.10 ([5]; use rate 4 g/ha)	Weed control (%) w.11 [6]
C#CCN1C(=O)COc2cc(F)c(N3C(=O)C4=C(CCCC4)C3=O)cc21 [flumioxazin, reference compound]	50%	65%	90%	95%	–	–	–	–	–	–
CCOC(=O)COc1ncccc1Oc1cc(-n2c(=O)cc(C(F)(F)F)n(C)c2=O)c(F)cc1Cl [compound (I).1, ethyl [3-[2-chloro-4-fluoro-5-(1-methyl-6-trifluoromethyl-2,4-dioxo-1,2,3,4-tetrahydropyrimidin-3-yl)phenoxy]-2-pyridyloxy]acetate]	100%	100%	100%	100%	100%	100%	–	–	–	–
C#CCOc1cc(-n2nc3n(c2=O)CCCC3)c(Cl)cc1Cl [azafenidin, reference compound]	–	–	–	–	–	–	72%	95%	98%	73%
CCOC(=O)COc1ccccc1Oc1cc(-n2c(=O)cc(C(F)(F)F)n(C)c2=O)c(F)cc1Cl [compound (I).4]	–	–	–	–	–	–	99%	100%	100%	100%
